Results from patent US11377442B2, “Small molecule agonists and antagonists of NR2F6 activity” (ZANDER THERAPEUTICS, INC., priority 2016, dated 2022).
Where two headings read alike, the source gives them in different places.

Assays:
Type in all cases: cell-based
NR2F6 = target: T1, NR2F6 (Homo sapiens, UniProt P10588); assay: NR2F6 agonist screening, Firefly signal cmpd/DMSO
T1 construct: expressed in transfected cells; also transient transfection
T1 sequence (P10588 1-404): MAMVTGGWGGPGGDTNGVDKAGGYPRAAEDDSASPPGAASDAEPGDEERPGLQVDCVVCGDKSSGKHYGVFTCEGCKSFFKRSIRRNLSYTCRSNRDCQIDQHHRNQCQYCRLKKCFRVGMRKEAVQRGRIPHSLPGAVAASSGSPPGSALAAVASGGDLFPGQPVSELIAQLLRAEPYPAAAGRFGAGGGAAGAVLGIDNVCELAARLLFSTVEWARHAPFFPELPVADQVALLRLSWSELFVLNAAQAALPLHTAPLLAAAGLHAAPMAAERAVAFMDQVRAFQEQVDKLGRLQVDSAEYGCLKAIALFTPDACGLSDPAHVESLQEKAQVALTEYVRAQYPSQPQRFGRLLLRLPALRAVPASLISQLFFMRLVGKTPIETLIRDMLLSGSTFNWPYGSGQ

NR2F6 LBD = target: T2, NR2F6 LBD (Homo sapiens, UniProt P10588); assay: NR2F6 LBD transient transfection
T2 construct: expressed in transfected cells
T2 sequence (P10588 165-393 limits assumed): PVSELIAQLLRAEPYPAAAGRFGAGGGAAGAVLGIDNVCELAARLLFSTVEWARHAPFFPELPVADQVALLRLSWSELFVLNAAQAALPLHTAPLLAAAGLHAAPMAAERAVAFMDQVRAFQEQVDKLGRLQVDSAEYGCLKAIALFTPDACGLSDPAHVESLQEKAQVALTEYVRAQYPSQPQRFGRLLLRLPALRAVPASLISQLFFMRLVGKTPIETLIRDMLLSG
In short: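 LBD-transfected cells treated at 40, 10, 2 and 0.5 μM (4 replicates); cytotoxicity measured in parallel, normalized to DMSO (0%) and zero signal (100%). Higher concentrations excluded where signal loss reflected toxicity.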

Renilla [1] = assay: Renilla signal, LBD, cmpd/DMSO (NR2F6 LBD transfected cells)
Renilla [2] = assay: Renilla signal in NR2F6 agonist screening, cmpd/DMSO; conditions: Renilla
HEK293 pGL4 = assay: Firefly_pGL signal, cmpd/DMSO (pGL4 control cells); conditions: Homo sapiens
[3] = read-out: Renilla F4, cmpd/DMSO (mean)
[4] = F4, 1% FBS, read-out: Renilla, F4, 1% FBS, cmpd/DMSO (mean)
[5] = F4, 10% FBS, read-out: Renilla, F4, 10% FBS, cmpd/DMSO (mean)
[6] = HEK293, 0.5 uM, read-out: Firefly pGL4, cmpd/DMSO (mean)
[7] = HEK293, 2 uM, read-out: Firefly pGL4, cmpd/DMSO (mean)
[8] = HEK293, 10 uM, read-out: Firefly pGL4, cmpd/DMSO (mean)
[9] = HEK293, 40 uM, read-out: Firefly pGL4, cmpd/DMSO (mean)
[10] = HEK293, pGL4, 1% FBS, 0.5 uM, read-out: Firefly, pGL4, 1% FBS, cmpd/DMSO (mean)
[11] = HEK293, pGL4, 1% FBS, 2 uM, read-out: Firefly, pGL4, 1% FBS, cmpd/DMSO (mean)
[12] = HEK293, pGL4, 1% FBS, 10 uM, read-out: Firefly, pGL4, 1% FBS, cmpd/DMSO (mean)
[13] = HEK293, pGL4, 1% FBS, 40 uM, read-out: Firefly, pGL4, 1% FBS, cmpd/DMSO (mean)
[14] = HEK293, pGL4, 10% FBS, 0.5 uM, read-out: Firefly, pGL4, 10% FBS, cmpd/DMSO (mean)
[15] = HEK293, pGL4, 10% FBS, 2 uM, read-out: Firefly, pGL4, 10% FBS, cmpd/DMSO (mean)
[16] = HEK293, pGL4, 10% FBS, 10 uM, read-out: Firefly, pGL4, 10% FBS, cmpd/DMSO (mean)
[17] = HEK293, pGL4, 10% FBS, 40 uM, read-out: Firefly, pGL4, 10% FBS, cmpd/DMSO (mean)

With `O=S1(=O)C[C@H](NCCCc2ccccc2)[C@@H](S(=O)(=O)c2ccc(Cl)cc2)C1` [Compound D137] the “Firefly F4, cmpd/DMSO (mean)” value (NR2F6; 0.5 uM) was 1.1, the “Firefly F4, cmpd/DMSO (mean)” value (NR2F6; 2 uM) was 1.3 and the “Firefly F4, cmpd/DMSO (mean)” value (NR2F6; 10 uM) was 2.0. For the same compound, the “Firefly F4, cmpd/DMSO (mean)” value (NR2F6; 40 uM) was 0.6, the “F4, Firefly/Renilla for S/B(F4) > 3” value (NR2F6; 1% FBS, 10 uM) was 1.9 and the “Firefly, F4/pGL4 for S/B(F4) > 3” value (NR2F6; 1% FBS, 10 uM) was 2.7. For the same compound, the “F4, Firefly/Renilla for S/B(F4) > 3” value (NR2F6; 1% FBS, 40 uM) was 1.0, the “Firefly, F4/pGL4 for S/B(F4) > 3” value (NR2F6; 1% FBS, 40 uM) was 2.4 and the “F4, Firefly/Renilla for S/B(F4) > 3” value (NR2F6; 10% FBS, 10 uM) was 2.2. For the same compound, the “Firefly, F4/pGL4 for S/B(F4) > 3” value (NR2F6; 10% FBS, 10 uM) was 2.2, the “F4, Firefly/Renilla for S/B(F4) > 3” value (NR2F6; 10% FBS, 40 uM) was 3.3 and the “Firefly, F4/pGL4 for S/B(F4) > 3” value (NR2F6; 10% FBS, 40 uM) was 3.1. The “Firefly, F4, 1% FBS, cmpd/DMSO (mean)” value (NR2F6; 1% FBS, 0.5 uM) was 1.2, the “Firefly, F4, 1% FBS, cmpd/DMSO (mean)” value (NR2F6; 1% FBS, 2 uM) was 2.2 and the “Firefly, F4, 1% FBS, cmpd/DMSO (mean)” value (NR2F6; 1% FBS, 10 uM) was 3.9. The “Firefly, F4, 1% FBS, cmpd/DMSO (mean)” value (NR2F6; 1% FBS, 40 uM) was 3.4, the “Firefly, F4, 10% FBS, cmpd/DMSO (mean)” value (NR2F6; 10% FBS, 0.5 uM) was 0.9 and the “Firefly, F4, 10% FBS, cmpd/DMSO (mean)” value (NR2F6; 10% FBS, 2 uM) was 1.4. The “Firefly, F4, 10% FBS, cmpd/DMSO (mean)” value (NR2F6; 10% FBS, 10 uM) was 4.6, the “Firefly, F4, 10% FBS, cmpd/DMSO (mean)” value (NR2F6; 10% FBS, 40 uM) was 13 and the “Firefly LBD, cmpd/DMSO (mean)” value (NR2F6 LBD; 0.5 uM) was 1.1. For the same compound, the “Firefly LBD, cmpd/DMSO (mean)” value (NR2F6 LBD; 2 uM) was 2.0, the “Firefly LBD, cmpd/DMSO (mean)” value (NR2F6 LBD; 10 uM) was 3.2 and the “Firefly LBD, cmpd/DMSO (mean)” value (NR2F6 LBD; 40 uM) was 0.4. For the same compound, the “Renilla LBD, cmpd/DMSO (mean)” value (Renilla [1]; 0.5 uM) was 1.0, the “Renilla LBD, cmpd/DMSO (mean)” value (Renilla [1]; 2 uM) was 1.0 and the “Renilla LBD, cmpd/DMSO (mean)” value (Renilla [1]; 10 uM) was 0.8. The “Renilla LBD, cmpd/DMSO (mean)” value (Renilla [1]; 40 uM) was 0.4, the fold induction at 0.5 µM (Renilla [2]; [3]) was 1.1 and the fold induction at 2 µM (Renilla [2]; [3]) was 1.1. The fold induction at 10 µM (Renilla [2]; [3]) was 1.8, the fold induction at 40 µM (Renilla [2]; [3]) was 2.6 and the fold induction at 0.5 µM (Renilla [2]; [4]) was 1. The fold induction at 2 µM (Renilla [2]; [4]) was 1.3, the fold induction at 10 µM (Renilla [2]; [4]) was 2.1 and the fold induction at 40 µM (Renilla [2]; [4]) was 3.5. For the same compound, the fold induction at 0.5 µM (Renilla [2]; [5]) was 1.2, the fold induction at 2 µM (Renilla [2]; [5]) was 1.4 and the fold induction at 10 µM (Renilla [2]; [5]) was 2.1. It also gave a fold induction at 40 µM (Renilla [2]; [5]) of 4, a fold induction at 0.5 µM (HEK293 pGL4; [6]) of 0.8 and a fold induction at 2 µM (HEK293 pGL4; [7]) of 1.2. It also gave a fold induction at 10 µM (HEK293 pGL4; [8]) of 1.5, a fold induction at 40 µM (HEK293 pGL4; [9]) of 1.5 and a fold induction at 0.5 µM (HEK293 pGL4; [10]) of 1. It also gave a fold induction at 2 µM (HEK293 pGL4; [11]) of 1, a fold induction at 10 µM (HEK293 pGL4; [12]) of 1.5 and a fold induction at 40 µM (HEK293 pGL4; [13]) of 1.5. The fold induction at 0.5 µM (HEK293 pGL4; [14]) was 0.7, the fold induction at 2 µM (HEK293 pGL4; [15]) was 1.1 and the fold induction at 10 µM (HEK293 pGL4; [16]) was 2.1. The fold induction at 40 µM (HEK293 pGL4; [17]) was 4.3.

`CC(C)OCCCN[C@H]1CS(=O)(=O)C[C@@H]1S(=O)(=O)c1ccc(Cl)cc1` [Compound D138] was tested, and the “Firefly F4, cmpd/DMSO (mean)” value (NR2F6; 0.5 uM) was 1.0, the “Firefly F4, cmpd/DMSO (mean)” value (NR2F6; 2 uM) was 1.1 and the “Firefly F4, cmpd/DMSO (mean)” value (NR2F6; 10 uM) was 2.6. For the same compound, the “Firefly F4, cmpd/DMSO (mean)” value (NR2F6; 40 uM) was 1.7, the “F4, Firefly/Renilla for S/B(F4) > 3” value (NR2F6; 1% FBS, 10 uM) was 2.2 and the “Firefly, F4/pGL4 for S/B(F4) > 3” value (NR2F6; 1% FBS, 10 uM) was 2.7. For the same compound, the “F4, Firefly/Renilla for S/B(F4) > 3” value (NR2F6; 1% FBS, 40 uM) was 1.1, the “Firefly, F4/pGL4 for S/B(F4) > 3” value (NR2F6; 1% FBS, 40 uM) was 1.9 and the “F4, Firefly/Renilla for S/B(F4) > 3” value (NR2F6; 10% FBS, 10 uM) was 1.6. The “Firefly, F4/pGL4 for S/B(F4) > 3” value (NR2F6; 10% FBS, 10 uM) was 1.8, the “F4, Firefly/Renilla for S/B(F4) > 3” value (NR2F6; 10% FBS, 40 uM) was 3.2 and the “Firefly, F4/pGL4 for S/B(F4) > 3” value (NR2F6; 10% FBS, 40 uM) was 3.2. The “Firefly, F4, 1% FBS, cmpd/DMSO (mean)” value (NR2F6; 1% FBS, 0.5 uM) was 0.8, the “Firefly, F4, 1% FBS, cmpd/DMSO (mean)” value (NR2F6; 1% FBS, 2 uM) was 1.9 and the “Firefly, F4, 1% FBS, cmpd/DMSO (mean)” value (NR2F6; 1% FBS, 10 uM) was 4.2. The “Firefly, F4, 1% FBS, cmpd/DMSO (mean)” value (NR2F6; 1% FBS, 40 uM) was 3.3, the “Firefly, F4, 10% FBS, cmpd/DMSO (mean)” value (NR2F6; 10% FBS, 0.5 uM) was 1.8 and the “Firefly, F4, 10% FBS, cmpd/DMSO (mean)” value (NR2F6; 10% FBS, 2 uM) was 1.3. For the same compound, the “Firefly, F4, 10% FBS, cmpd/DMSO (mean)” value (NR2F6; 10% FBS, 10 uM) was 3.1, the “Firefly, F4, 10% FBS, cmpd/DMSO (mean)” value (NR2F6; 10% FBS, 40 uM) was 12 and the “Firefly LBD, cmpd/DMSO (mean)” value (NR2F6 LBD; 0.5 uM) was 1.3. The “Firefly LBD, cmpd/DMSO (mean)” value (NR2F6 LBD; 2 uM) was 1.8, the “Firefly LBD, cmpd/DMSO (mean)” value (NR2F6 LBD; 10 uM) was 3.7 and the “Firefly LBD, cmpd/DMSO (mean)” value (NR2F6 LBD; 40 uM) was 0.4. The “Renilla LBD, cmpd/DMSO (mean)” value (Renilla [1]; 0.5 uM) was 0.9, the “Renilla LBD, cmpd/DMSO (mean)” value (Renilla [1]; 2 uM) was 1.1 and the “Renilla LBD, cmpd/DMSO (mean)” value (Renilla [1]; 10 uM) was 0.9. The “Renilla LBD, cmpd/DMSO (mean)” value (Renilla [1]; 40 uM) was 0.3, the fold induction at 0.5 µM (Renilla [2]; [3]) was 0.8 and the fold induction at 2 µM (Renilla [2]; [3]) was 1. It also gave a fold induction at 10 µM (Renilla [2]; [3]) of 1.2, a fold induction at 40 µM (Renilla [2]; [3]) of 2.3 and a fold induction at 0.5 µM (Renilla [2]; [4]) of 1.3. For the same compound, the fold induction at 2 µM (Renilla [2]; [4]) was 1.4, the fold induction at 10 µM (Renilla [2]; [4]) was 1.9 and the fold induction at 40 µM (Renilla [2]; [4]) was 2.9. The fold induction at 0.5 µM (Renilla [2]; [5]) was 1.4, the fold induction at 2 µM (Renilla [2]; [5]) was 1.4 and the fold induction at 10 µM (Renilla [2]; [5]) was 2. For the same compound, the fold induction at 40 µM (Renilla [2]; [5]) was 3.6, the fold induction at 0.5 µM (HEK293 pGL4; [6]) was 0.9 and the fold induction at 2 µM (HEK293 pGL4; [7]) was 0.9. For the same compound, the fold induction at 10 µM (HEK293 pGL4; [8]) was 1.5, the fold induction at 40 µM (HEK293 pGL4; [9]) was 1.5 and the fold induction at 0.5 µM (HEK293 pGL4; [10]) was 1. The fold induction at 2 µM (HEK293 pGL4; [11]) was 1, the fold induction at 10 µM (HEK293 pGL4; [12]) was 1.6 and the fold induction at 40 µM (HEK293 pGL4; [13]) was 1.7. The fold induction at 0.5 µM (HEK293 pGL4; [14]) was 1.1, the fold induction at 2 µM (HEK293 pGL4; [15]) was 1 and the fold induction at 10 µM (HEK293 pGL4; [16]) was 1.7. For the same compound, the fold induction at 40 µM (HEK293 pGL4; [17]) was 3.6.
